Results: patent US10434197B2, “Tetrazine-trans-cyclooctene ligation for the rapid construction of radionuclide labeled probes” (University of Delaware, priority 2010, dated 2019)
Where two headings read alike, the source gives them in different places.

What was measured:
in vivo = test: in vivo; set-up: species or system mice; conditions: mouse, iv, 3.7 MBq, total radioactivity
Method: (§1) Animal procedures were performed according to a protocol approved by the University of Southern California Institutional Animal Care and Use Committee. For static microPET scans, mice bearing U87MG xenografts were injected with 3.7 MBq (100 μCi) of ^18F-41 via the tail vein (n=3 for each group). At 0.5, 1, and 2 h post injection (p.i.), the mice were anesthetized with isoflurane (5% for induction and 2% for maintenance in 100% O2) using a knock-down box. With the help of a laser beam attached to the scanner, the mice were placed in the prone position and near the center of the field of view of the scanner. The 3-min static scans were then obtained. Images were reconstructed using a 2-dimensional ordered-subsets expectation maximization (OSEM) algorithm. No background correction was performed. Regions of interest (ROIs; 5 pixels for coronal and transaxial slices) were drawn over the tumor on decay-corrected whole-body coronal images. The maximum counts per pixel per minute were obtained from the ROI and converted to counts per milliliter per minute using a calibration constant. With the assumption of a tissue density of 1 g/mL, the ROIs were converted to counts per gram per min. Image ROI-derived % ID/g values were determined by dividing counts per gram per minute with injected dose. No attenuation correction was performed. Similarly, ^18F-43 was injected into healthy nude mice for microPET study.
(§2) Representative coronal microPET images of U87MG tumor-bearing mice (n=3/group) were obtained at different times after intravenous injection of about 3.7 MBq (100 μCi) of ^18F-41. The tumors after injection of the radiotracers were all clearly visible with good contrast to contralateral background at all time points measured. […] Quantification of tumor and major organ activity accumulation in the microPET scans was achieved by measuring regions of interest (ROIs) encompassing the entire organ on the coronal images. Tumor and major organ uptake of ^18F-41 is depicted in FIG. 3A. The tumor uptake of ^18F-41 in U87MG tumor was 1.98±0.33, 1.80±0.15, and 1.27±0.33% ID/g at 0.5, 1, and 2 h p.i., respectively. The uptake of the ^18F-41 decreased rapidly with time in the muscle, affording better image contrast at later time points after injection (2 h).

U87MG tumor = test: in vivo; set-up: species or system mice; conditions: mouse
Method: as §1, §2

[1] = Stability and isomerization of Diels-Alder conjugate 10 in water, CD3CN/H2O, PBS; format: physicochemical; conditions: for rearrangement to ^19F-11, conversion: CD3CN/H2O
[2] = Rate of Diels-Alder reaction with 3,6-di(2-pyridyl)-s-tetrazine (1a); format: physicochemical
From the text: The inventors have previously described tetrazine-trans-cyclooctene ligation (‘ITCO ligation’) as a method of bioconjugation that proceeds with fast reaction rates without need for catalysis (M. L. Blackman, M. Royzen and J. M. Fox, J. Am. Chem. Soc. 2008, 130, 13518-13519) trans-Cyclooctene derivatives are readily prepared from cis-cyclooctenes using a photochemical flow-reaction that the inventors developed (M. Royzen, G. P. A. Yap and J. M. Fox, J. Am. Chem. Soc. 2008, 130, 3760-3761). […] Thus, the reaction between trans-cyclooctene and 1a proceeds with a rapid rate (k2˜2000 M^−1 s^−1 in 9:1 MeOH:water), and is successful in cell media and cell lysate.
The inventors also used a photochemical flow reactor (M. Royzen, G. Yap, and J. Fox, J. Am. Chem. Soc. 2008, 130 (12), 3760) to synthesize 16, an analog of 7 with a functionalizable group. The rate of the reaction of compound 16 with 3,6-di(2-pyridyl)-s-tetrazine (1a) in methanol was k2=22000 M^−1s^−1, […] than the reaction of 1a with trans-cyclooctene in the same solvent. […] Compound 16 can be readily converted into carbamate derivatives, and compound 16 can be selectively conjugated to the protein thioredoxin using the conjugation of maleimide 26 (vide infra) to a cysteine residue, and that conjugate can in turn can take part in tetrazine ligation analogous to that shown below for compound 16.

[3] = Chemical stability of 16 (water, amine, thiol); format: physicochemical; conditions: 24 hours
[4] = Stability of 16 in human serum; format: in vitro ADME; conditions: 24 hours
[5] = 9:1 MeOH:water; cited from earlier work

In the case of `N=C(N)NCCC[C@@H]1NC(=O)[C@H](CSC2CC(=O)N(CCNC(=O)CCCC(=O)Nc3ccc(C4=NN=C(c5ccccn5)C5CCCCC(OCCF)CC45)nc3)C2=O)NC(=O)[C@@H](Cc2ccc(O)cc2)NC(=O)[C@H](CC(=O)O)NC(=O)CNC1=O` (stereo partly drawn) [^18F-41], the tissue uptake at 0.5 h (in vivo) is reported as 1.98 ± 0.33 %ID/g, the tissue uptake at 1 h (in vivo) is reported as 1.8 ± 0.15 %ID/g and the tissue uptake at 2 h (in vivo) is reported as 1.27 ± 0.33 %ID/g. For the same compound, the excretion route (U87MG tumor) was “mainly excreted through the renal system”.

In the case of `FCCO[C@@H]1CCC[C@@H]2C(c3ccccn3)=NN=C(c3ccccn3)[C@H]2CC1` [compound 10, 7-(2-fluoroethoxy)-1,4-di(pyridin-2-yl)-4a,5,6,7,8,9,10,10a-octahydrocycloocta[d]pyridazine], the stability in water [1] is reported as “stable”, the “rearrangement to ^19F-11, conversion” value ([1]; after 4 hours) is reported as 11% and the “rearrangement to ^19F-11, conversion” value ([1]; after 48 hours) is reported as > 95%.

With `OC[C@@H]1[C@H]2CC/C=C/CC[C@@H]12` [compound 16] the “rate of reaction with 1a” value ([2]; aqueous solvent systems, UV-vis spectroscopy) was “too fast to measure”, the “k2, reaction with 1a” value ([2]; methanol) was 22000 M⁻¹ s⁻¹ and the “rate relative to reaction of 1a with trans-cyclooctene” value ([2]; same solvent (methanol)) was 18 times faster. For the same compound, the stability ([3]; 5 mM ethanethiol in MeOH) was “no degradation”, the stability ([3]; 5 mM n-butylamine in MeOH) was “no degradation” and the stability ([3]; water) was “no degradation”. The stability [4] was “no degradation”.

In the case of `C1=C/CCCCCC/1` [trans-cyclooctene], the “k2, reaction with 1a” value [5] is listed as ~2000 M⁻¹ s⁻¹.
